{"source": "paper PMC3948331", "about": "(Future medicinal chemistry, 2013)", "key": {"guinea pigs": {"system": "guinea pigs", "settings": "guinea pigs treated with Bnz; cited from earlier work"}, "[1]": {"system": "T. cruzi, strain Tulahuen C4 amastigotes", "experiment": "In vitro activity against T. cruzi intracellular amastigotes in L6 host cells", "format": "cell-based, Trypanosoma cruzi", "settings": "for IC50: Trypanosoma cruzi, TULAHUEN, L6, read-out: T. cruzi IC-50; for Selectivity: IC50 in L6 cells/IC50 in T. cruzi, compounds 9–13"}, "S. typhimurium strains": {"system": "S. typhimurium strains", "settings": "cited from earlier work"}, "Balb/c mice": {"system": "Balb/c mice", "experiment": "Apparent toxicity in treated T. cruzi-infected mice", "format": "in vivo", "settings": "30 mg/kg/day i.p., 5- and 10-day treatment"}, "[2]": {"experiment": "Cytotoxicity assessment in the host L6 cells", "format": "cell-based", "settings": "rat, L6 cells (rat skeletal myoblasts)"}, "[3]": {"system": "transgenic T. cruzi Y strain expressing firefly luciferase", "experiment": "In vivo anti-T. cruzi fast luminescence assay in infected Balb/c mice", "design": "species or system Trypanosoma cruzi", "settings": "for in vivo antichagasic activity compared with Bnz: 10-day treatment, Bnz 15 mg/kg/day"}, "Plasma stability screen": {"experiment": "Plasma stability screen", "format": "in vitro ADME, mouse", "settings": "5 µM"}, "[4]": {"experiment": "Microsomal stability screen", "format": "in vitro ADME", "settings": "mouse, microsomes, 1 h, 1 µM, pH 7.4"}, "[5]": {"experiment": "Caco-2 monolayer permeability", "settings": "human"}, "in vitro": {"experiment": "in vitro", "settings": "human, Caco-2"}, "[6]": {"settings": "logD at pH 6; threshold for high permeability; cited from earlier work"}, "zebrafish embryos": {"system": "zebrafish embryos", "experiment": "Toxicity studies in zebrafish embryos", "settings": "incubation of embryos; data not shown"}, "[7]": {"settings": "i.p., 5–10 days treatment at the doses of Figure 1, more than 80 and up to 100%"}}, "data": [{"smiles": "O=C(Cn1ccnc1[N+](=O)[O-])NCc1ccccc1", "note": "[Bnz, benznidazole]", "values": [{"measurement": "mutagenic derivatives in serum and urine detectable by the Ames test", "setting": "guinea pigs", "value": "not metabolized by the mammalian host into stable mutagenic derivatives"}, {"measurement": "IC50", "setting": "[1]", "value": 1430, "unit": "nM"}, {"measurement": "concentrations showing significant mutagenicity", "setting": "S. typhimurium strains", "value": "< 62", "unit": "µg/mL"}]}, {"smiles": "Cl.O=[N+]([O-])c1ncn(CCCNCCc2cccc(C(F)(F)F)c2)n1", "note": "[Compound 9, [3-(3-nitro-1H-1,2,4-triazol-1-yl)propyl] ({2-[3-(trifluoromethyl)phenyl]ethyl})amine hydrochloride]", "values": [{"measurement": "toxicity in treated mice", "setting": "Balb/c mice", "value": "without any sign of toxicity"}, {"measurement": "IC50", "setting": "[2]", "value": 90100, "unit": "nM"}, {"measurement": "Selectivity", "setting": "[1]", "value": 116}, {"measurement": "IC50", "setting": "[1]", "value": 775, "unit": "nM"}, {"measurement": "drop of parasite index", "setting": "[3]; 30 mg/kg/day i.p., after 5-day treatment", "value": "about 88%"}, {"measurement": "drop of parasite index", "setting": "[3]; 30 mg/kg/day i.p., after 10-day treatment", "value": "~85", "unit": "%"}, {"measurement": "drop of parasite index", "setting": "[3]; [7]", "value": "more than 80%"}]}, {"smiles": "O=[N+]([O-])c1ncn(CCCNc2nc3ccc(Cl)cc3s2)n1", "note": "[Compound 10, 6-chloro-N-[3-(3-nitro-1H-1,2,4-triazol-1-yl)propyl]-1,3-benzothiazol-2-amine]", "values": [{"measurement": "Mean remaining parent comp", "setting": "Plasma stability screen; mouse plasma, 60 min, 37°C", "value": 87.3, "unit": "%"}, {"measurement": "IC50", "setting": "[2]", "value": 102000, "unit": "nM"}, {"measurement": "Selectivity", "setting": "[1]", "value": 1725}, {"measurement": "IC50", "setting": "[1]", "value": 59, "unit": "nM"}, {"measurement": "in vivo antichagasic activity", "setting": "[3]; 10 mg/kg/day i.p., 5- or 10-day treatment", "value": "failed to demonstrate in vivo antichagasic activity"}, {"measurement": "Mean remaining parent comp (+)NADPH", "setting": "[4]", "value": 1.0, "unit": "%"}, {"measurement": "Mean remaining parent comp (−)NADPH", "setting": "[4]", "value": 108, "unit": "%"}]}, {"smiles": "O=[N+]([O-])c1ncn(CCCCNS(=O)(=O)c2ccc(Cl)s2)n1", "note": "[Compound 11, 5-chloro-N-[4-(3-nitro-1H-1,2,4-triazol-1-yl)butyl]thiophene-2-sulfonamide]", "values": [{"measurement": "IC50", "setting": "[2]", "value": 128000, "unit": "nM"}, {"measurement": "Selectivity", "setting": "[1]", "value": 277.5}, {"measurement": "IC50", "setting": "[1]", "value": 462, "unit": "nM"}, {"measurement": "parasite signal", "setting": "[3]; 15 mg/kg/day i.p., after 10 days of treatment, greater activity than Bnz", "value": "no detectable parasite signal"}, {"measurement": "drop of parasite index", "setting": "[3]; [7]", "value": "more than 80%"}]}, {"smiles": "O=[N+]([O-])c1ncn(CCCCNS(=O)(=O)c2cc(Cl)c(Cl)s2)n1", "note": "[Compound 12, 4,5-dichloro-N-[4-(3-nitro-1H-1,2,4-triazol-1-yl)butyl]thiophene-2-sulfonamide]", "values": [{"measurement": "IC50", "setting": "[2]", "value": 97300, "unit": "nM"}, {"measurement": "Selectivity", "setting": "[1]", "value": 261.1}, {"measurement": "IC50", "setting": "[1]", "value": 373, "unit": "nM"}, {"measurement": "in vivo antichagasic activity compared with Bnz", "setting": "[3]; 15 mg/kg/day i.p.", "value": "failed to perform better than Bnz"}]}, {"smiles": "O=C(NCCCCn1cnc([N+](=O)[O-])n1)c1nc2ccccc2s1", "note": "[Compound 13, N-[4-(3-nitro-1H-1,2,4-triazol-1-yl)butyl]-1,3-benzothiazole-2-carboxamide]", "values": [{"measurement": "IC50", "setting": "[2]", "value": 154000, "unit": "nM"}, {"measurement": "Selectivity", "setting": "[1]", "value": 364.4}, {"measurement": "IC50", "setting": "[1]", "value": 422, "unit": "nM"}, {"measurement": "in vivo antichagasic activity compared with Bnz", "setting": "[3]; 15 mg/kg/day i.p.", "value": "failed to perform better than Bnz"}]}, {"smiles": "CC(C)[N+](C)(CCOC(=O)C1c2ccccc2Oc2ccccc21)C(C)C", "note": "[Propantheline]", "values": [{"measurement": "Mean remaining parent comp", "setting": "Plasma stability screen; mouse plasma, 60 min, 37°C", "value": 30.4, "unit": "%"}]}, {"smiles": "CNC(=C[N+](=O)[O-])NCCSCc1ccc(CN(C)C)o1", "note": "[Ranitidine]", "values": [{"measurement": "Papp A→B at 2 h, 10 µM", "setting": "[5]", "value": 0.5, "unit": "×10⁻⁶ cm/s"}]}, {"smiles": "CC(=O)CC(c1ccccc1)c1c(O)c2ccccc2oc1=O", "note": "(stereo not shown) [Warfarin]", "values": [{"measurement": "Papp A→B at 2 h, 10 µM", "setting": "in vitro", "value": 44.2, "unit": "×10⁻⁶ cm/s"}, {"measurement": "Mean remaining parent comp", "setting": "Plasma stability screen; mouse, plasma, 1 h", "value": 97.8, "unit": "%"}, {"measurement": "Mean remaining parent comp (+)NADPH", "setting": "[4]", "value": 83.9, "unit": "%"}]}, {"smiles": "CC(CCc1ccccc1)NCC(O)c1ccc(O)c(C(N)=O)c1", "note": "(stereo not shown) [labetalol]", "values": [{"measurement": "logD6", "setting": "[6]", "value": "−0.42"}]}, {"smiles": "CC1CS(=O)(=O)CCN1/N=C/c1ccc([N+](=O)[O-])o1", "note": "(stereo not shown) [nifurtimox]", "values": [{"measurement": "effect on zebrafish embryos' development", "setting": "zebrafish embryos", "value": "weakened heart beat, pericardial oedema or death"}]}]}
